# Test results taken from patent US7915292B2, “Antibacterial quinoline derivatives” (Janssen Pharmaceutica NV, priority 2005, dated 2011).
# System: M. Smegmatis ATCC607
# Assay: In-vitro anti-bacterial activity against strain M. smegmatis ATCC607 (Alamar Blue growth inhibition)
# Assay type: cell-based
# Conditions: 48 hours incubation
# Procedure: Serial five-fold dilutions (45 μl in 180 μl) were made directly in the microtiter plates from column 2 to 11 using a customised robot system (Zymark Corp., Hopkinton, Mass.). Pipette tips were changed after every 3 dilutions to minimize pipetting errors with high hydrophobic compounds. Untreated control samples with (column 1) and without (column 12) inoculum were included in each microtiter plate. Approximately 250 CFU per well of bacteria inoculum, in a volume of 100 μl in 2.8× Mueller-Hinton broth medium, was added to the rows […]. The same volume of broth medium without inoculum was added to column 12 in row A to H. The cultures were incubated at 37° C. for 48 hours in a humidified 5% CO2 atmosphere (incubator with open air valve and continuous ventilation). At the end of incubation, two days after inoculation, the bacterial growth was quantitated fluorometrically. Therefore Alamar Blue (10×) was added to all wells in a volume of 20 μl and plates were incubated for another 2 hours at […] The fluorescence was read in a computer-controlled fluorometer (Cytofluor, Biosearch) at an excitation wavelength of 530 nm and an emission wavelength of 590 nm (gain 30). The percentage growth inhibition achieved by the compounds was calculated according to standard methods and expressed as pIC50 values.
row,Compound,M. smegmatis pIC50
1,COc1nc2ccc(Br)cc2cc1C(c1ccccc1)N(C)CC(=O)N(C)c1ccccc1C (stereo not drawn) [Compound 10],4.7
2,COc1nc2ccc(Br)cc2cc1C(c1ccccc1)N(CC(=O)N1CCSCC1)Cc1cccc2ncccc12 (stereo not drawn) [Compound 115],4.8
3,COc1nc2ccc(Br)cc2cc1C(c1ccccc1)N(C)CC(=O)N1CCCN(C)CC1 (stereo not drawn) [Compound 84],5.1
4,COc1nc2ccc(Br)cc2cc1C(c1ccccc1)N(C)CC(=O)N1CCN(Cc2ccccc2)CC1 (stereo not drawn) [Compound 91],4.1
5,COc1nc2ccc(Br)cc2cc1C(c1ccccc1)N(C)CCCN(C)C (stereo not drawn) [Compound 27],5.5
6,COCCN(CCOC)C(=O)CN(C)C(c1ccccc1)c1cc2cc(Br)ccc2nc1OC (stereo not drawn) [Compound 13],4.6
7,CN(C)C(=O)CN(Cc1ccccc1)C(c1cc2ccccc2o1)c1cc2ccccc2nc1-c1ccccc1 (stereo not drawn) [Compound 35],5.6
8,COc1nc2ccc(Br)cc2cc1C(c1ccccc1)N(C)CC(=O)N1Cc2ccccc2C1 (stereo not drawn) [Compound 95],4.9
9,CCOC(=O)CN(Cc1ccccn1)C(c1ccccc1)c1cc2cc(Br)ccc2nc1OC (stereo not drawn) [Compound 139],4.3
10,COc1nc2ccc(Br)cc2cc1C(c1ccccc1)N(C)CC(=O)N1CC=CCC1 (stereo not drawn) [Compound 85],5.1
11,O=C(CN(Cc1ccccc1)C(c1ccccc1)c1cc2ccccc2nc1-c1ccccc1)N1CCCCC1 (stereo not drawn) [Compound 126],6.4
12,COc1nc2ccc(Br)cc2cc1C(c1ccccc1)N(CC(=O)N1CCN(C)CC1)Cc1ccnc2ccccc12 (stereo not drawn) [Compound 119],5.5
13,COc1nc2ccc(Br)cc2cc1C(c1ccccc1)N(C)CC(=O)N(CCC#N)Cc1cccnc1 (stereo not drawn) [Compound 14],5.2
14,Cc1ccc2nc(-c3ccccc3)c(C(c3ccccc3)N(CC(=O)NCC3CC3)Cc3ccccc3)cc2c1 (stereo not drawn) [Compound 42],5.8
15,Cc1ccc2nc(-c3ccccc3)c(C(c3ccccc3)N(CC(=O)NC3CCCCC3)Cc3ccccc3)cc2c1 (stereo not drawn) [Compound 43],5.2
16,CCOC(=O)CN(Cc1ccoc1)C(c1ccccc1)c1cc2cc(Br)ccc2nc1OC (stereo not drawn) [Compound 136],4.4
17,COc1nc2ccc(Br)cc2cc1C(c1ccccc1)N(C)CC(=O)N1CC(C)OC(C)C1 (stereo not drawn) [Compound 87],5.1
18,CC(C)N(C)C(=O)CN(Cc1ccccc1)C(c1ccccc1)c1cc2ccccc2nc1-c1ccccc1 (stereo not drawn) [Compound 33],6.5
19,COc1nc2ccc(Br)cc2cc1C(c1ccccc1)N(C)CC(=O)N(C)CC#N (stereo not drawn) [Compound 7],4.9
20,COc1nc2ccc(Br)cc2cc1C(c1ccccc1)N(C)CC(=O)N(C)C (stereo not drawn) [Compound 4],5.1
21,CNC(=O)CN(Cc1ccccc1)C(c1ccccc1)c1cc2cc(C)ccc2nc1-c1ccccc1 (stereo not drawn) [Compound 40],5.6
22,COc1nc2ccc(Br)cc2cc1C(c1ccccc1)N(CC(=O)N1CCOCC1)Cc1ccnc2ccccc12 (stereo not drawn) [Compound 118],5.6
23,COc1nc2ccc(Br)cc2cc1C(c1ccccc1)N(C)CC(=O)N(C)CCN(C)C (stereo not drawn) [Compound 8],5.1
24,CNC(=O)CN(C)C(c1ccccc1)c1cc2cc(C)ccc2nc1-c1ccccc1 (stereo not drawn) [Compound 38],4.5
25,COc1nc2ccc(Br)cc2cc1C(c1ccccc1)N(CC(=O)N1CCOCC1)C(C)C (stereo not drawn) [Compound 98],5.3

row,Compound,M. smegmatis pIC50
1,CN(C)C(=O)CN(Cc1ccccc1)C(c1ccccc1)c1cc2ccccc2nc1-c1ccccc1 (stereo not drawn) [Compound 32],5.7
2,COc1nc2ccc(Br)cc2cc1C(c1ccccc1)N(CC(=O)N(C)C)Cc1ccccc1 (stereo not drawn) [Compound 24],5.1
3,COc1nc2ccc(Br)cc2c(Cl)c1C(c1ccccc1)N(C)CC(=O)N(C)C (stereo not drawn) [Compound 15],4.8
4,COc1nc2ccc(Br)cc2cc1C(c1ccccc1)N(CC(=O)N1CCOCC1)Cc1ccccn1 (stereo not drawn) [Compound 110],5.2
5,COc1nc2ccc(Br)cc2cc1C(c1ccccc1)N(C)CC(=O)N1CCOCC1 (stereo not drawn) [Compound 86],4.9
6,COc1nc2ccc(Br)cc2cc1C(c1ccccc1)N(CC(=O)N1CCSCC1)Cc1ccnc2ccccc12 (stereo not drawn) [Compound 117],4.3
7,O=C(CN(Cc1ccccc1)C(c1cccnc1)c1cc2ccccc2nc1-c1ccccc1)N1CCSCC1 (stereo not drawn) [Compound 56],5.8
8,COc1nc2ccc(Br)cc2cc1C(c1ccccc1)N(C)CCN(C)C (stereo not drawn) [Compound 1],5.1
9,COc1nc2ccc(Br)cc2cc1C(c1ccccc1)N(C)CC(=O)N1CCSC1 (stereo not drawn) [Compound 81],5
10,COc1nc2ccc(C)cc2cc1C(c1ccccc1)N(CCC(=O)N1CCOCC1)Cc1ccccc1 (stereo not drawn) [Compound 60],5.3
11,Cc1ccc2nc(-c3ccccc3)c(C(c3ccccc3)N(C)CC(=O)N3CCN(C)CC3)cc2c1 (stereo not drawn) [Compound 62],5.1
12,O=C(CN(Cc1ccccc1)C(c1cc2ccccc2o1)c1cc2ccccc2nc1-c1ccccc1)N1CCSCC1 (stereo not drawn) [Compound 58],6.1
13,COc1nc2ccc(Br)cc2cc1C(c1ccccc1)N(CC(=O)N(C)C)Cc1cccc2ncccc12 (stereo not drawn) [Compound 25],5.4
14,COc1nc2ccc(Br)cc2c(Cl)c1C(c1ccccc1)N(C)CC(=O)N1CCOCC1 (stereo not drawn) [Compound 96],5.2
15,COc1nc2ccc(Br)cc2cc1C(c1ccccc1)N(C)CC(=O)N(C)CCCN(C)C (stereo not drawn) [Compound 9],5
16,COc1nc2ccc(Br)cc2cc1C(c1ccccc1)N(CC(=O)N1CCOCC1)Cc1cccc2ncccc12 (stereo not drawn) [Compound 116],5.3
17,Cc1ccc2nc(-c3ccccc3)c(C(c3ccccc3)N(CC(=O)NN3CCOCC3)Cc3ccccc3)cc2c1 (stereo not drawn) [Compound 44],5.1
18,O=C(CN(Cc1ccccc1)C(c1ccccc1)c1cc2ccccc2nc1-c1ccccc1)N1CCSCC1 (stereo not drawn) [Compound 127],6.5
19,CCN(Cc1ccncc1)C(=O)CN(C)C(c1ccccc1)c1cc2cc(Br)ccc2nc1OC (stereo not drawn) [Compound 12],5.1
20,COc1nc2ccc(Br)cc2cc1C(c1ccccc1)N(C)CC(=O)N1CCCC1 (stereo not drawn) [Compound 80],5.1
21,COc1nc2ccc(Br)cc2cc1C(c1ccccc1)N(C)CC(=O)N1CCN(C)CC1 (stereo not drawn) [Compound 89],5
22,Cc1ccc2nc(-c3ccccc3)c(C(c3ccccc3)N(C)CC(=O)N3CCOCC3)cc2c1 (stereo not drawn) [Compound 63],5.1
23,COc1nc2ccc(Br)cc2cc1C(c1ccccc1)N(CC(=O)N(C)C)Cc1ccnc2ccccc12 (stereo not drawn) [Compound 26],5.7
24,COc1nc2ccc(Br)cc2cc1C(c1ccccc1)N(CC(=O)N1CCOCC1)Cc1ccco1 (stereo not drawn) [Compound 101],4.9

# Same assay, conditions: Mycolicibacterium smegmatis, 48 hours incubation, read-out: M. smegmatis pIC50 (converted)
row,Compound,IC50 [µM]
1,COc1nc2ccc(Br)cc2cc1C(c1ccccc1)N(C)CC(=O)N1CCC(C)CC1 (stereo not drawn) [Compound 83],2.51
2,CC(C)N(C)C(=O)CN(Cc1ccccc1)C(c1cc2ccccc2o1)c1cc2ccccc2nc1-c1ccccc1 (stereo not drawn) [Compound 36],0.316
3,CC(C)N(C)C(=O)CN(Cc1ccccc1)C(c1ccccc1)c1cc2cc(Br)ccc2nc1Oc1ccccc1 (stereo not drawn) [Compound 30],0.631
4,CCOC(=O)CN(Cc1ccccc1)C(c1cccnc1)c1cc2ccccc2nc1-c1ccccc1 (stereo not drawn) [Compound 129],1.58
5,Cc1ccc2nc(-c3ccccc3)c(C(c3ccccc3)N(C)CCN(C)C)cc2c1 (stereo not drawn) [Compound 37],20
